The values below come from paper PMC3076311 (Nature structural & molecular biology, 2011).

The test concerns the target TcdB CPD E753R R745E (Clostridioides difficile, UniProt P18177, E753R/R745E). Type of test: biochemical, Clostridium difficile.

Take inositol hexakisphosphate [InsP6]: the “factor by which activity is decreased relative to wildtype TcdB CPD” value is 23.
